Consider 5 compounds from US10751318B2, “Pharmaceutical co-crystal and use thereof” (SYN-NAT PRODUCTS ENTERPRISE LLC, priority 2015, dated 2020).

Series [1] has as its system A498 kidney cancer cell line. As to the kind of experiment: MTS cell viability assay, A498 kidney cancer cells. Type of series: cell-based. Background: Formazan colour is commonly taken as a measure of viable cells.
Series [2] deals with human embryonic kidney cell line HEK293. As to the kind of experiment: MTS cell viability assay, HEK293 (kidney cancer study; controls carboplatin, 5-FU).
Series [3] deals with fetal hepatocytes HL-7002. As to the kind of experiment: MTS cell viability assay, HL-7002 (kidney cancer study; controls carboplatin, 5-FU). The note with it: for IC50: read-out: IC50 in HL-7002 cells.
In series [4] the test system is ACHN kidney cancer cell line. As to the kind of experiment: MTS cell viability assay, ACHN kidney cancer cells. In kind it is cell-based. The note with it: read-out: IC50 to reduce ACHN cell number.
Series [5] concerns PC-3 prostate cancer cell line. As to the kind of experiment: MTS cell viability assay, PC-3 prostate cancer cells. In kind it is cell-based, human. The note with it: PC-3 cells, 0.01 to 300 μM, read-out: IC50 to reduce PC-3 cell number.
Series [6] relates to LNCaP prostate cancer cell line. The series is described as follows: MTS cell viability assay, LNCaP prostate cancer cells. The note with it: 0.01 to 300 μM, read-out: IC50 to reduce LNCaP cell number. Type of series: cell-based, human.
Series [7] has as its system fetal hepatocytes HL-7002. The series is described as follows: MTS cell viability assay, HL-7002 (prostate cancer study; controls docetaxel, cisplatin). The note with it: for IC50: read-out: IC50 to reduce HL-7002 cell number.
For series [8], the system named is human embryonic kidney cell line HEK293. The series is described as follows: MTS cell viability assay, HEK293 (prostate cancer study; controls docetaxel, cisplatin). The note with it: for toxicity to HEK293 cells: study with docetaxel and cisplatin (FIG. 4).
Series [9] concerns HBsAg secreted by HepG2.2.15 cells. The series is described as follows: HBsAg secreted by HepG2.2.15 cells (ELISA). Type of series: cell-based, hepatitis B virus. The note with it: 3d. From the text:
(§1) The levels of HbsAg and HbeAg in chemical-treated HepG2.2.15 cells were detected by enzyme-linked immunosorbent assay (ELISA).
On the technique in general: In an ELISA, binding on a coated surface is turned into a signal by an enzyme label.

For series [10], the system named is HBeAg secreted by HepG2.2.15 cells. As to the kind of experiment: HBeAg secreted by HepG2.2.15 cells (ELISA). Type of series: cell-based, hepatitis B virus. The note with it: 3d.
Text: as §1

[11] abbreviates: A498 cells, MTS, 0.01 to 300 uM, read-out: IC50 to reduce A498 cell number.
Setting [12] is: read-out: IC50 in HEK293 cells, HEK293 cells, study with carboplatin and 5-FU (FIG. 8).
Setting [13] is: HL-7002 cells, study with carboplatin and 5-FU (FIG. 7).
The mark [14] stands for this setting: ACHN cells, MTS, 0.01 to 300 uM.
[15] abbreviates: HL-7002 cells, study with docetaxel and cisplatin (FIG. 3).
Setting [16] is: HEK293 cells, similar conditions.
Setting [17] is: HL-7002 cells, similar conditions.

Values joined by “and” are separate entries in the source; they are usually repeats but may differ in a detail not shown here. Identical values can stand only once. Like-named read-outs stand apart in the source and are kept apart here.

A word on the IC50: it is the concentration that gives 50% inhibition. Turning to `O=c1[nH]cc(F)c(=O)[nH]1` [5-FU, fluorouracil, reference compound], the IC50 in series [1] (Homo sapiens, A498, read-out: IC50 to reduce A498 cell number) was 18.2 µM; in series [2] (Homo sapiens, HEK293, read-out: IC50 in HEK293 cells), 356 µM; in series [3] (Homo sapiens, Hepatocyte) it was 45 µM; in [4] (Homo sapiens, ACHN), 6.45 µM.

`N.N.O=C([O-])C1(C(=O)[O-])CCC1.[Pt+2]` [carboplatin, reference compound]: the IC50 in [1] (setting [11]) is 14.7 µM; in series [2] (setting [12]), 237 µM; in series [3] (setting [13]), 34 µM; in series [4] (setting [14]), 11 µM. In addition, in the series “Water solubility”, the water solubility stood at 18 mg/mL.

For the compound `N.N.[Cl][Pt][Cl]` [cisplatin, reference compound], the IC50 was determined as 2.49 µM in series [5]; 2.25 µM in series [6]; 2.01 µM in series [7] (setting [15]); 6.9 µM in [8] (read-out: IC50 in HEK293 cells, study with docetaxel and cisplatin (FIG. 4)).

On to `CC(=O)O[C@@]12CO[C@@H]1C[C@H](O)[C@@]1(C)C(=O)[C@H](O)C3=C(C)[C@@H](OC(=O)[C@H](O)[C@@H](NC(=O)OC(C)(C)C)c4ccccc4)C[C@@](O)([C@@H](OC(=O)c4ccccc4)[C@H]21)C3(C)C` [docetaxel, reference compound], for which the IC50 in series [7] (Homo sapiens, Hepatocyte) came to 0.095 µM. In series [8], the “toxicity to HEK293 cells” value is recorded as “strong toxicity”.

Turning to “carboplatin cis-cyclobutane-1,2-dicarboxylic acid co-crystal [CBCBP]”, the IC50 in series [1] (setting [11]) is ~18.4 µM and 18.4 µM; in series [5] it was ~17.6 µM and 17.6 µM; in series [2] (setting [12]), 1200 µM and ~1200 µM; in [6], about 19.6 µM; in [7] (setting [15]), ~20.5 µM and 20.5 µM; in series [3] (setting [13]), 351 µM and ~351 µM. Besides, the IC50 in [4] (setting [14]) is 11.6 µM and ~11.6 µM. The “toxicity of CBCBP relative to 5-FU” value in series [2] (setting [16]) was “about ¼”; in [3] (setting [17]) it was “about ⅛”. For the same compound, the “toxicity of CBCBP relative to carboplatin” value in [2] (setting [16]) is “about ⅕”; in [3] (setting [17]), “about 1/10”. For the same compound, the “inhibition rate HbsAg” value in series [9] (3.125 μg/mL) was 19.5%; in [9] (6.25 μg/mL), 23.6%; in series [9] (12.5 μg/mL), 37.3%; in series [9] (25 μg/mL), 48.5%. Also, the “inhibition rate HbeAg” value in series [10] (3.125 μg/mL) is 0.6%; in series [10] (6.25 μg/mL) it was 25.0%; in [10] (12.5 μg/mL), 25.3%; in series [10] (25 μg/mL) it was 28.5%. The same compound had a water solubility in “Water solubility” of about 30 mg/mL. For the same compound, the “toxicity of CBCBP relative to cisplatin” value in series [7] (setting [17]) was “about 1/10”. Also, in series [7] (setting [17]), the “toxicity of CBCBP relative to docetaxel” value was “about 1/216”. Moreover, the “toxicity to HEK293 cells” value in series [8] was “no toxicity”.
